Experimental data from patent US7214534B2, “Isolated nucleic acid molecules encoding mutant μ opioid receptors” (Regents of the University of Minnesota, priority 2002, dated 2007).
Values joined by “and” are separate entries in the source; they are usually repeats but may differ in a detail not shown here. Equal values may be shown once.

Experiments:
[1] = target: T1, μ opioid receptor (wild-type) (Mus musculus, UniProt P42866); test: [3H]DAMGO saturation binding (Scatchard analysis), brain membranes of wild-type mice
T1 construct: Brain membranes were prepared from both wild-type mice; from tissue; host or cells: mouse brain membranes (wild-type littermates)
T1 sequence (P42866 whole entry): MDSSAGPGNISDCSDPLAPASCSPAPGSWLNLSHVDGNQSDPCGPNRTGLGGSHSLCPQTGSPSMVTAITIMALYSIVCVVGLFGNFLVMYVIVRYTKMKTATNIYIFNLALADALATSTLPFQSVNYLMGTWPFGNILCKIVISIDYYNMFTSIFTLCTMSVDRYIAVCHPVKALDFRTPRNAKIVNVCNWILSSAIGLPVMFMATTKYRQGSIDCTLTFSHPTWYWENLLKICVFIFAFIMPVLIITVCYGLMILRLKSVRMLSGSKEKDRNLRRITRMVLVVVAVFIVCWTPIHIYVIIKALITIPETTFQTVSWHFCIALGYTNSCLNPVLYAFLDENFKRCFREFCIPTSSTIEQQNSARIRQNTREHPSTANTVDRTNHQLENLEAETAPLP
Description: (§1) Approximately 200–350 μg of membranes were used in each assay.

[2] = target: T2, μ opioid receptor S196A mutant (Mus musculus, UniProt P42866, S196A); test: [3H]DAMGO saturation binding (Scatchard analysis), brain membranes of homozygous Cre/S196A mice; settings: listed as [^3H]DAMGO
T2 construct: brain membranes from homozygous Cre/S196A (HOMO) mutant mice; from tissue; host or cells: brain membranes of homozygous Cre/S196A knock-in mice
T2 sequence (P42866 whole entry S196A): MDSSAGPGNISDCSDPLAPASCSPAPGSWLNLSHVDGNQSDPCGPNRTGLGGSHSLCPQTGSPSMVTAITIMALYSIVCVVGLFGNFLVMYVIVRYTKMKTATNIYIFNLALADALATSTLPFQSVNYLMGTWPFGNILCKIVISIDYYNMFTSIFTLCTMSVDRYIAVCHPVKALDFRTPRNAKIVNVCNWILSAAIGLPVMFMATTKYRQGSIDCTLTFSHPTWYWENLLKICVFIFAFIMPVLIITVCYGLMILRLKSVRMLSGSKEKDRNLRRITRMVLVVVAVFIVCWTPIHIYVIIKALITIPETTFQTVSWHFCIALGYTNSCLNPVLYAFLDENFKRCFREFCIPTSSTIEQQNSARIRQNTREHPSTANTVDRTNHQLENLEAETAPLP
Description: as §1

[3] = tested on: Cre/S196A mice; test: Acetic acid-induced writhing inhibition test, Cre/S196A mutant mice; type: in vivo, mouse; settings: for ED50: Mus musculus, ip, 0.6% acetic acid i.p.
Description: (§2) Writhing tests were conducted as follows. […] Writhing was counted for 20 minutes following the i.p. injection. At the same time, mice from each genotype were injected with saline s.c. plus acetic acid i.p., and the mean count of writhing of the saline group was calculated. The % MPE for writhing test was calculated by the following formula: (mean count of saline group−count of drug group)*100/(mean count of saline group).

[4] = tested on: wild-type mice; test: Acetic acid-induced writhing inhibition test, wild-type mice; type: in vivo, mouse; settings: for ED50: Mus musculus, ip, 0.6% acetic acid i.p.
Description: as §2

[5] = tested on: Cre/S196A mice; test: Tail withdrawal antinociception test, Cre/S196A mutant mice; settings: for ED50: Mus musculus, radiant heat
Description: (§3) For tail withdrawal testing, mice were loosely wrapped in an adsorbent towel, and their tails were immersed about 2 cm into water heated to 53° C. or placed under radiant heat. The latency to tail withdrawal was recorded. A cut-off time of 24 seconds for warm water or 12 seconds for radiant heat was used to minimize tail damage. […] Percent maximum possible effects (% MPE) were calculated by the following formula: (measured latency−baseline latency)*100/(cut-off time−baseline latency). Each dose for each genotype involved 8–12 mice. ED50 values were derived from regression analysis on the linear portion of each dose-response curve or calculated by non-linear regression. A two way analysis of variance (ANOVA) (genotype and dose) was used to determine genetic differences among genotypes in the same dose groups.

[6] = tested on: wild-type mice; test: Tail withdrawal antinociception test, wild-type mice; type: in vivo, mouse; settings: for ED50: Mus musculus, 0.5 h, read-out: ED50 tail withdrawal
Description: as §3

[7] = tested on: μ opioid receptor knockout mice; test: Nalorphine antinociception in μ opioid receptor knockout mice; type: in vivo, mouse; settings: μ opioid receptor knockout mice (data not shown)
[8] = read-out: ED50 tail withdrawal, homozygous Cre/S196A mice, 30 minutes after morphine and nalorphine, 12 minutes after naloxone injection

Which Bmax [1] does the source give for C[C@@H](NC(=O)[C@@H](N)Cc1ccc(O)cc1)C(=O)NCC(=O)N(C)[C@@H](Cc1ccccc1)C(=O)NCCO [DAMGO, [D-Ala^1.N-McPhe^4.Gly^5-ol]enkephalin] here?
The Bmax was 113±4.3 fmole/mg-protein.

And the Bmax [2]?
Its Bmax is 17.5±2.3 fmol/mg protein and 17.5 fmol/mg protein.

With CN1CC[C@]23c4c5ccc(O)c4O[C@H]2[C@@H](O)C=C[C@H]3[C@H]1C5 [morphine] as the compound, how does the ED50 ([3]; heterozygous Cre/S196A mice) read?
Its ED50 is 0.68 mg/kg.

What about the ED50 ([3]; homozygous Cre/S196A mice) of the same compound?
Its ED50 is 0.5 mg/kg.

And the ED50 [4]?
The ED50 was 0.48 mg/kg.

What about the ED50 ([5]; read-out: ED50 tail withdrawal, heterozygous Cre/S196A mice) of the same compound?
Its ED50 is 3.47 mg/kg.

And the ED50 [5, 8]?
The ED50 was 3.2 mg/kg.

What about the ED50 [6] of the same compound?
Its ED50 is 4.4 mg/kg.

How did the ED50 ([3]; homozygous Cre/S196A mice) turn out when C=CCN1CC[C@]23c4c5ccc(O)c4O[C@H]2[C@@H](O)C=C[C@H]3[C@H]1C5 [nalorphine] was run?
Its ED50 is 0.27 mg/kg.

And the “maximal antinociceptive response compared with morphine, inhibition of writhing” value ([3]; homozygous Cre/S196A mice, dose of 1 mg/kg)?
The value was “same maximal antinociceptive response as morphine”.

And the “maximal response, of the maximal morphine response, writhing” value [4]?
Its value is 44±3%.

What about the ED50 [4] of the same compound?
Its ED50 is 0.37 mg/kg.

What about the ED50 [5, 8] of the same compound?
Its ED50 is 0.89 mg/kg.

And the “antinociceptive response, of the morphine maximal response, tail withdrawal” value ([5]; homozygous Cre/S196A mice, maximal dose tested, 10 mg/kg)?
Its value is 68±5%.

And the antinociceptive effect [7]?
Its antinociceptive effect is “absence of nalorphine effect”.

And the ED50 [6]?
Its ED50 is 0.61 mg/kg.

And the “maximal response, of the maximal morphine response, tail withdrawal” value ([6]; wild-type mice)?
The value was 24±5%.

Which results are given for C=CCN1CC[C@]23c4c5ccc(O)c4O[C@H]2C(=O)CC[C@@]3(O)[C@H]1C5 [naloxone]?
maximal response, of that observed with morphine, writhing inhibition ([3]; Cre/S196A mice): 45±3; ED50 ([3]; homozygous Cre/S196A mice): 0.22 mg/kg; antinociceptive response, writhing ([4]; doses of 0.1 to 10 mg/kg): did not produce significant antinociceptive responses; ED50 [5, 8]: 1.32 mg/kg; toxic effects ([5]; both the mutant and the wild-type mice at higher dosages): increasing toxic effects; antinociceptive response, tail withdrawal ([6]; wild-type mice, doses of 0.1 to 10 mg/kg): did not produce significant antinociceptive responses
